Reference: patent publication US6147068A, “Lipophilic polyamine esters for the site specific delivery of nitric oxide in pharmaceutical use” (The University of Akron, priority 1998, dated 2000)

Assay: Nitric oxide release profile of NONOates (nitric oxide analyzer)
Assay type: physicochemical
Method: Using a Monitor Labs Model 8440 Nitric Oxide Analyzer, interfaced with an HP 3396 A Chromatography Integrator, the nitric oxide release from the above synthesized NONOates was measured. […] Teflon® flow meters were inserted at the beginning of the circuit just before entry into the analyzer, and a helium tank with regulator was connected to the first flow meter.
The release profile was performed by adding about 3 to about 8 mg of the NO donor molecules prepared above to 25 ml of phosphate-buffered saline (PBS) (pH 7.4) in an impinger bottle that was subjected to continuous stirring. Varying amounts of the lung surfactant Survanta was added to certain samples, as were the surfactants Tween® 20 and Tween® 80. Tween® is available from Fisher Scientific Company, Fair Lawn, N.J. Still in other examples, the NONOates were simply dissolved in THF. Although the NONOates are insoluble in aqueous solution, sonication pulverized the compound adequately to produce fine particles that increased the surface area of the compound allowing a suspension to form. Once the impinger bottle was assembled, it was held in a water sonicator bath and sonicated until the insoluble sample was pulverized into fine particles or an emulsion. The amount of liberated NO was determined by the daily or timely flushing of helium through the solution and into the analyzer. Typically, measurements were taken every 2-4 hours during the first 18 hours and then every 12 hours thereafter. Eventually, readings only needed to be taken every 24 hours as the end of the release profile was approached. Helium gas was flushed through the system at 12 psig and the first flow meter was set to 150 ml/min. The second flow meter was adjusted to allow maximum flow. The released data was then used to compile the release profiles represented in FIGS. 3-10. The release profiles as represented in FIGS. 3-10 depict NO release from the NONOates in nmol NO/mg NONOate versus time in hours.
Based on these release profiles, the half-life and % Release for each NONOate prepared above was calculated and is represented in Table I, which represents NO release in PBS at pH 7.4.

Row | Molecule | % Release (NO) (PBS, pH 7.4) | half-life (1% survanta, half-life (NO release)) [h] | half-life (5% & 10% survanta, half-life (NO release)) [h] | half-life (5% tween 20, half-life (NO release)) [h] | half-life (10% tween 20, half-life (NO release)) [h] | half-life (NO release) (pbs, pH 7.4) | half-life (pbs, pH 7.4, half-life (NO release)) [h] | half-life (thf, pH 1, half-life (NO release)) [h]
1 | Dihexadecanylspermate-NONOate [DiHSNO] | about 7.4% |  |  |  |  |  |  | 
2 | CC(C)CCC[C@@H](C)[C@H]1CC[C@H]2[C@@H]3CC=C4C[C@@H](OC(=O)CCN(CCCCN)[N+]([O-])=NO)CC[C@]4(C)[C@H]3CC[C@]12C [CPNO, Cholesterylputreanine-NONOate] |  | 62 | 39 | 104 | 72 | about 60 hr | 60 | 21
